Data on one compound can be found in US20060264418A1, “6-(2,2,2-Trifluoroethylamino-7-chloro-2,3,4,5-tetrahydro-1h-benzo[d] azephine as a 5-ht2c receptor agonist” (priority 2003, published 2006).

One test addresses T1, 5-HT2C receptor (Homo sapiens, UniProt P28335).
T1 sequence (P28335 33-458): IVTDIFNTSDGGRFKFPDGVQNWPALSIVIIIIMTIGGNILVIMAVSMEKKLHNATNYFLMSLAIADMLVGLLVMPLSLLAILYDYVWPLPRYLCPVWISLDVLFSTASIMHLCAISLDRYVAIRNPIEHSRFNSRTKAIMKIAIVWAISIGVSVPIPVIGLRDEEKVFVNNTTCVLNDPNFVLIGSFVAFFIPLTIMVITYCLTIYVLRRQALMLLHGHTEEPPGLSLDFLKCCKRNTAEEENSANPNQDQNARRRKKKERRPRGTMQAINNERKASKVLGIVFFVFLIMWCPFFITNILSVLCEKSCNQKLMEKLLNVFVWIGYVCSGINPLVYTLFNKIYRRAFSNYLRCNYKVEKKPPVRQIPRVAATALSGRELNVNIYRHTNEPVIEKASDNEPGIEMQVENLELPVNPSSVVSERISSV
Kind of test: G alpha q-GTPγ[35S] binding agonist activity assay (ISPA), 5-HT2C. The format is biochemical. Also on record: expressed in transfected cells; host or cells: AV12 cells. In general terms: GTPγS resists hydrolysis and so accumulates on activated G proteins.

For another test, the system named is male Long-Evans rats. The test is described as follows: Acute feeding assay with a selective 5-HT2C receptor antagonist. To be noted: antagonist 3 mg/Kg subcutaneous about 15 min. before oral test compound. The format is in vivo, rat. An excerpt: Animals: Obtain male Long-Evans rats (Harlan Sprague-Dawley, Indianapolis, Ind.) that are approximately one hundred-days old and have been maintained on a calorie rich diet since weaning (TD 95217, 40% calories from fat; Teklad, Madison, Wis.). House the rats individually with a 12 hr.:12 hr. light:dark cycle (lights on from about 22:00 hr. to about 10:00 hr.) and maintain rats on the same diet (TD 95217) with free access to water, for about 1-2 weeks to acclimate the rats to the environment. Dose rats orally with vehicle (10% acacia with 0.15% saccharin in water) once daily for at least 1 day (typically 1-2 days) to acclimate the rats to the procedures. Randomize the rats into groups so each group has similar mean body weights.
Acute Feeding Assay with a selective 5-HT2C receptor antagonist: The above calorimetric acute feeding assay is conducted with the following modifications. Open circuit calorimetry systems are not used and only the 24 hr. periodic food intake and body weight are measured. […]

Another test has as its target T2, human 5-HT2B receptor (Homo sapiens, UniProt P41595).
T2 construct: expressed in transfected cells; host or cells: AV12 cells
Kind of test: G alpha q-GTPγ[35S] binding agonist activity assay (ISPA), 5-HT2B. In kind it is biochemical. The protocol:
Agonist Activity Assays (G Alpha g-GTPγ[^35S] Binding Assays)
The 5-HT2 receptors are functionally coupled to specific G-proteins. Agonist activation of 5-HT2 G-protein-coupled receptors results in the release of GDP from the α-subunit (G alpha q or G alpha i) of the G-protein and the subsequent binding of GTP. The binding of the stable analog GTPγ[^35S] is an indicator of receptor activation (i.e. agonist activity).
The area under the dose response curve (AUC) is also determined for each receptor subtype and used to measure the test compound's selectivity for the 5-HT2C receptor over the 5-HT2A and 5-HT2B receptors, expressed as Selectivity Ratios (AUC 2C/2A and AUC 2C/2B, respectively). The Selectivity Ratios allow the assessment of selectivity based on both potency and efficacy. A selectivity measure that incorporates both potency and efficacy at the 5-HT2C receptor, as compared to the 5-HT2A and 5-HT2B.receptors, is considered important due to the adverse events associated with 5-HT2A and 5-HT2B agonist activity (see introduction). […]
G alpha q-GTPγ[^35S] […] Quantitate the GTPγ[^35] binding by microtiter plate scintillation spectrometry (Wallac Trilux MicroBeta™ scintillation counter). […]

T2 sequence (P41595 whole entry): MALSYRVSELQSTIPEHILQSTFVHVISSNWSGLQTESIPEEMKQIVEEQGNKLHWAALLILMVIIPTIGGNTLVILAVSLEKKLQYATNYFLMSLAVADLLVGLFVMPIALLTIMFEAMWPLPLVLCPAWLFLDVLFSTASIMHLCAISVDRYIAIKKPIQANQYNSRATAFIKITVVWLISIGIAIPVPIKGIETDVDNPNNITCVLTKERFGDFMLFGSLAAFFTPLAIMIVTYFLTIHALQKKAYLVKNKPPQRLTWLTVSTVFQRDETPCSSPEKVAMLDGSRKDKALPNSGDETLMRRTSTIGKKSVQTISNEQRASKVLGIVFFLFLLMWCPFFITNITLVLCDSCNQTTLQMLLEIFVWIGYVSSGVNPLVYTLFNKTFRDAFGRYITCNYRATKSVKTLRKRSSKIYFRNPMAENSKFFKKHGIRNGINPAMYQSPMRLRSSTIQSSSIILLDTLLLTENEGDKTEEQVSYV

For orientation: EC50 means the concentration at which the effect is half-maximal. Usually Emax stands for the size of the effect at its maximum, as opposed to the concentration needed. Take `FC(F)(F)CNc1c(Cl)ccc2c1CCNCC2.O=C(O)CCC(=O)O` [Example 2, 7-Chloro-6-(2,2,2-trifluoroethylamino)-2,3,4,5-tetrahydro-1H-benzo[d]azepine Succinic Acid Salt]: the EC50 on 5-HT2C receptor was determined as 0.0118 ± 0.0028 µM; on human 5-HT2B receptor (AV12 cell membranes with human 5-HT2B, ± standard error of the mean), 0.119 ± 0.034 µM. Further, the “AUC 2C/2A Selectivity Ratio” value on 5-HT2C receptor (ratio of AUCs normalized to 5-HT, 5-HT2C receptor/5-HT2A receptor) is recorded as 2.2. Also, the “AUC 2C/2B Selectivity Ratio” value at 5-HT2C receptor (ratio of AUCs normalized to 5-HT, 5-HT2C receptor/5-HT2B receptor) amounted to 3.8. The Emax worked out at 106 ± 2.8% at 5-HT2C receptor (read-out: 5HT2C Emax) and 33.9 ± 1% on human 5-HT2B receptor. Besides, the “effect on 24 hr. food intake after pre-administration of the 5-HT2C receptor antagonist” value with male Long-Evans rats was “blocked”.
